What was measured:
[1] = Displacement of [3H]2-BFI from I2IR in human brain frontal cortex assessed as binding affinity at high affinity site incubated for 45 mins by liquid scintillation spectrometry; format: tissue-based
[2] = Displacement of [3H]2-BFI from I2IR in human brain frontal cortex assessed as binding affinity at low affinity site incubated for 45 mins by liquid scintillation spectrometry; format: tissue-based
Homo sapiens [3] = organism: Homo sapiens; assay: Displacement of [3H]2-BFI from I2IR in human brain frontal cortex assessed as binding affinity at high affinity site incubated for 45 mins by liquid scintillation spectrometry relative to control; format: tissue-based; design: concentration or dose not given beside the values
Homo sapiens [4] = organism: Homo sapiens; assay: Selectivity ratio of Ki for alpha2-AR high binding site in human brain frontal cortex to Ki for I2IR high binding site in human brain frontal cortex
[5] = target: T1, Alpha-2A adrenergic receptor (Homo sapiens, UniProt P08913); assay: biochemical
T1 sequence (P08913 whole entry): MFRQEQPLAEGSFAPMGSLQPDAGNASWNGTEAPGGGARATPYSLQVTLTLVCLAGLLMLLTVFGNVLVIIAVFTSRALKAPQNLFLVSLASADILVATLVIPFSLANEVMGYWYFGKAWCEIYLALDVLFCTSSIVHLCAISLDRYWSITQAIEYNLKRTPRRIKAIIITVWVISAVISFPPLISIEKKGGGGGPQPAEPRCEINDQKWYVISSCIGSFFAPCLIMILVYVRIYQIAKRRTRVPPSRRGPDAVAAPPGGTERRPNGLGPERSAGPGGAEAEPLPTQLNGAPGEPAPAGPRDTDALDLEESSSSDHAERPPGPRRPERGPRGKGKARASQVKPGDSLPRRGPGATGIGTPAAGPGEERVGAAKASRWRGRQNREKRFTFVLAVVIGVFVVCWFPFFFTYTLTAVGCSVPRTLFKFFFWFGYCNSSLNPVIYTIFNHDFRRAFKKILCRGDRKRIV
Description: Displacement of [3H]RX821002 from alpha2-AR in human brain frontal cortex incubated for 30 mins by liquid scintillation spectrometry

[6] = Displacement of [3H]2-BFI from I2IR in Wistar rat brain cortex incubated for 90 mins by radioligand binding assay
[7] = Displacement of [3H]2-BFI from I2IR in Sprague-Dawley rat brain cortex assessed as binding affinity at high binding site incubated for 45 mins by liquid scintillation spectrometry
[8] = Displacement of [3H]2-BFI from I2IR in Sprague-Dawley rat brain cortex assessed as binding affinity at low binding site incubated for 45 mins by liquid scintillation spectrometry
Rattus norvegicus = organism: Rattus norvegicus; assay: Displacement of [3H]2-BFI from I2IR in Sprague-Dawley rat brain cortex assessed as binding affinity at high binding site incubated for 45 mins by liquid scintillation spectrometry relative to control
[9] = Displacement of [3H]2-BFI from I2IR in human brain frontal cortex incubated for 45 mins by liquid scintillation spectrometry; format: tissue-based
Homo sapiens [10] = organism: Homo sapiens; assay: Selectivity index, […] for alpha2-AR human brain frontal cortex […] in human brain frontal cortex
Nischarin = Nischarin (Homo sapiens, UniProt Q9Y2I1); assay: Displacement of [3H]clonidine from I1IR in human brain frontal cortex in presence of adrenaline incubated for 45 mins by liquid scintillation spectrometry; format: tissue-based
[11] = Displacement of [3H]2-BFI from I2IR in Sprague-Dawley rat brain cortex incubated for 45 mins by liquid scintillation spectrometry
[12] = Displacement of [3H]2-BFI from I2IR in Swiss mouse brain cortex incubated for 45 mins by liquid scintillation spectrometry

Sequence of Nischarin (Q9Y2I1 whole entry): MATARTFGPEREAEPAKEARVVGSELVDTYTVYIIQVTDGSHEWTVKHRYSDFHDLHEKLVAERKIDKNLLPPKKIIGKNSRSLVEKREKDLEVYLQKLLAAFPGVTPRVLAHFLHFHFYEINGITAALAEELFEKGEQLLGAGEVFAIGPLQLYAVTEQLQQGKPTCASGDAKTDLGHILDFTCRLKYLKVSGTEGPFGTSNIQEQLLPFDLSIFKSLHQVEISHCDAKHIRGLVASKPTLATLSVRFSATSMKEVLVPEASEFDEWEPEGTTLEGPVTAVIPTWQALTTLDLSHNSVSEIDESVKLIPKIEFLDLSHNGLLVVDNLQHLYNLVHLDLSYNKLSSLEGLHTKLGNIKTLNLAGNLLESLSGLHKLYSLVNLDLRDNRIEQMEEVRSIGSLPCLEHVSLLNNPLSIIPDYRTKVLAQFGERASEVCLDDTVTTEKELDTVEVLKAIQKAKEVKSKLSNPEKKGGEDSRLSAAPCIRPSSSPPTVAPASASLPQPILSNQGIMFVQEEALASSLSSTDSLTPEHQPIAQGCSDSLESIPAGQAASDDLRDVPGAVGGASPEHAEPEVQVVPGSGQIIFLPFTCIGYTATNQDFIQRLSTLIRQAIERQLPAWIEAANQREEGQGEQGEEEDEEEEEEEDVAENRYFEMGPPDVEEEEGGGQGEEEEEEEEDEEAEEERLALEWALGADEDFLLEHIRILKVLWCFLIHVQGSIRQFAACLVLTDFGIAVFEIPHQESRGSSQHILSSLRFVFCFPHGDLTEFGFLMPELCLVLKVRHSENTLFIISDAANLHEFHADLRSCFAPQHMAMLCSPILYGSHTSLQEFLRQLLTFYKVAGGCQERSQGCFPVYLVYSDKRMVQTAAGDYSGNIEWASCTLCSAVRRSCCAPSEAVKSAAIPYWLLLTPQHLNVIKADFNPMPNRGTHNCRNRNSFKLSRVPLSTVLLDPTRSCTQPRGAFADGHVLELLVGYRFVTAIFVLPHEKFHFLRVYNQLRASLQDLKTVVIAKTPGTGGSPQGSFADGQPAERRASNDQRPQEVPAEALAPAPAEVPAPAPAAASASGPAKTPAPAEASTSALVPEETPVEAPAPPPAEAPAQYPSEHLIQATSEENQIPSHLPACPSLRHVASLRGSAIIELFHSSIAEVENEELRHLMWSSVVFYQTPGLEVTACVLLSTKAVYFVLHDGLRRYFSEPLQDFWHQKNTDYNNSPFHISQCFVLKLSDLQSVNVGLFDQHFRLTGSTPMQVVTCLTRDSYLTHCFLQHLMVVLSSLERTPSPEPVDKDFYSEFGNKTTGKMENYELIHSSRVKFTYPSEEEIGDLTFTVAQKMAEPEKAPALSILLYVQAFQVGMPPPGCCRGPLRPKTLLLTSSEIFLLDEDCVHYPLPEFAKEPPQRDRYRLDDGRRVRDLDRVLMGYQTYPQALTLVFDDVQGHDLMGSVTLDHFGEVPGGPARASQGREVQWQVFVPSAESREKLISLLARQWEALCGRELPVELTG

Row | Compound | Ki [5] | pKi [9] | IC50 (Nischarin) | other results
1 | c1ccc2oc(-c3ncc[nH]3)cc2c1 | 6.76 µM |  |  | pKi [1]: 9.03; pKi [2]: 5.25; Activity (Homo sapiens [3]): 49%; Ratio Ki (Homo sapiens [4]): 7240
2 | c1ccc(-c2ncc3cc(-n4ccnc4)ccc3n2)cc1 | 2240 µM |  |  | IC50 [6]: 0.596 µM; Ki [6]: 0.019 µM; pKi [1]: 7.72; pKi [2]: 5.45; Activity (Homo sapiens [3]): 29%; Ratio Ki (Homo sapiens [4]): 117000
3 | c1ccc2oc(C3=NCCN3)cc2c1 | 0.229 µM |  |  | Ki [1]: 0.00013 µM; pKi [1]: 9.87; pKi [2]: 7.94; Activity (Homo sapiens [3]): 21%; Ratio Ki (Homo sapiens [4]): 1700
4 | Cn1c(C2=NCCN2)cc2ccccc21 |  |  |  | pKi [1]: 6.89; pKi [2]: 3.82; Activity (Homo sapiens [3]): 51%; Ki [7]: 0.0014 µM; Ki [8]: 0.239 µM; inhibition (Rattus norvegicus): 58%
5 | CCOP(=O)(OCC)C1(c2ccccc2)N=CC2C(=O)N(CCc3ccccc3)C(=O)C21 (racemic) | 170 µM | 6.35 | 0.0105 µM | Ratio pKi (Homo sapiens [10]): 380
6 | CCOP(=O)(OCC)C1(c2ccccc2)N=CC2C(=O)N(Cc3ccccc3)C(=O)C21 (racemic) |  | 5.26 | 1.35 µM | 
7 | CCOP(=O)(OCC)C1(c2ccccc2)N=CC2C(=O)N(c3cccc([N+](=O)[O-])c3)C(=O)C21 (racemic) |  | 6.81 | 5.5 µM | 
8 | CCOP(=O)(OCC)C1N=CC2C(=O)N(c3ccc(F)c(Cl)c3)C(=O)C21 (racemic) | 0.00324 µM | < 3 | > 1000 µM | 
9 | CCOP(=O)(OCC)C1(c2ccccc2)N=CC2C(=O)N(c3cccc(Cl)c3)C(=O)C21 (racemic) |  | < 3 |  | 
10 | CCOP(=O)(OCC)C1(c2ccccc2)N=CC2C(=O)N(CC34CC5CC(CC(C5)C3)C4)C(=O)C21 (racemic) | 49 µM | 7.01 |  | Ratio pKi (Homo sapiens [10]): 501
11 | CCOP(=O)(OCC)C1(c2ccc(F)cc2)N=CC2C(=O)N(c3ccccc3)C(=O)C21 (racemic) | 0.17 µM | < 3 |  | 
12 | CCOP(=O)(OCC)C1(c2ccccc2)N=CC2C(=O)N(c3cc(Cl)cc(Cl)c3)C(=O)C21 (racemic) | 0.603 µM | 5.81 |  | 
13 | CCOP(=O)(OCC)C1(c2ccccc2)N=CC2C(=O)N(C)C(=O)C21 (racemic) | 1.17 µM | 7.97 | 0.646 µM | Ratio pKi (Homo sapiens [10]): 110
14 | CCOP(=O)(OCC)C1(c2ccccc2)N=CC2C(=O)N(c3c(Cl)cc(Cl)cc3Cl)C(=O)C21 (racemic) | 6.92 µM | < 3 |  | 
15 | CCOP(=O)(OCC)C1(c2ccccc2)N=CC2C(=O)N(c3ccc(C)cc3)C(=O)C21 (racemic) |  | 5.44 |  | 
16 | CCOP(=O)(OCC)C1(c2ccc(F)cc2)N=CC2C(=O)N(c3ccc(F)c(Cl)c3)C(=O)C21 (racemic) | 417 µM | 7.55 |  | Ratio pKi (Homo sapiens [10]): 14800
17 | CCOP(=O)(OCC)C1N=CC2C(=O)N(C)C(=O)C21 (racemic) | 0.00447 µM | 6.79 | 7.41 µM | 
18 | CCOP(=O)(OCC)C1(Cc2ccccc2)N=CC2C(=O)N(c3ccccc3)C(=O)C21 (racemic) | 115 µM | 6.59 | 7.59 µM | Ratio pKi (Homo sapiens [10]): 447
19 | CCOP(=O)(OCC)C1(c2ccccc2)N=CC2C(=O)N(c3ccc(F)cc3)C(=O)C21 (racemic) | 4.57 µM | < 3 |  | 
20 | CCOP(=O)(OCC)C1(c2ccccc2)N=CC2C(=O)N(c3ccc(C(F)(F)F)cc3)C(=O)C21 (racemic) | 18.6 µM | < 3 |  | 
21 | CCOP(=O)(OCC)C1(c2ccccc2)N=CC2C(=O)N(c3ccccc3)C(=O)C21 (racemic) |  | 10.28 | 0.182 µM | 
22 | CCOP(=O)(OCC)C1N=CC2C(=O)N(C3CCCCC3)C(=O)C21 (racemic) | 0.000324 µM | 5.74 | 7.24 µM | Ratio pKi (Homo sapiens [10]): 5
23 | CCOP(=O)(OCC)C1(c2ccccc2)N=CC2C(=O)N(c3ccc(Cl)c(Cl)c3)C(=O)C21 (racemic) |  | < 3 |  | 
24 | CCOP(=O)(OCC)C1(c2ccccc2)N=CC2C(=O)N(c3cccnc3Cl)C(=O)C21 (racemic) | > 1000 µM | 7.96 |  | Ratio pKi (Homo sapiens [10]): 91200

Row | Compound | Ki [5] | pKi [9] | IC50 (Nischarin) | other results
25 | CCOP(=O)(OCC)C1(c2ccccc2)N=CC2C(=O)N(c3ccccc3Cl)C(=O)C21 (racemic) | 0.708 µM | 5.09 |  | pKi [1]: 7.53; pKi [2]: 4.74; Activity (Homo sapiens [3]): 25%; Ratio Ki (Homo sapiens [4]): 24
26 | CCOP(=O)(OCC)C1(c2ccccc2)N=CC2C(=O)N(c3cccc4ccccc34)C(=O)C21 (racemic) | > 1000 µM | 3.11 |  | 
27 | CCOP(=O)(OCC)C1(c2ccccc2)N=CC2C(=O)N(c3ccc(Oc4ccccc4)cc3)C(=O)C21 (racemic) |  | 6.96 |  | 
28 | CCOP(=O)(OCC)C1(c2ccccc2)N=CC2C(=O)N(c3ccc(OC)cc3)C(=O)C21 (racemic) |  | 6.65 | 603 µM | 
29 | CCOP(=O)(OCC)C1(c2ccccc2)N=CC2C(=O)N(c3cccc(C(F)(F)F)c3)C(=O)C21 (racemic) |  | < 3 |  | 
30 | CCOP(=O)(OCC)C1(c2ccccc2)N=CC2C(=O)N(C3CCCCC3)C(=O)C21 (racemic) |  |  | 0.0288 µM | 
31 | CCOP(=O)(OCC)C1N=CC2C(=O)N(c3ccc(OC)cc3)C(=O)C21 (racemic) | 5.37e-05 µM | 5.11 | 0.00813 µM | 
32 | CCOP(=O)(OCC)C1(c2ccc(OC)cc2)N=CC2C(=O)N(c3ccc(F)c(Cl)c3)C(=O)C21 (racemic) | > 1000 µM | 7.87 |  | Ratio pKi (Homo sapiens [10]): 74100
33 | CCOP(=O)(OCC)C1(c2ccccc2)N=CC2C(=O)N(c3ccc(Cl)cc3)C(=O)C21 (racemic) |  | < 3 |  | 
34 | CCOP(=O)(OCC)C1N=CC2C(=O)N(c3ccccc3)C(=O)C21 (racemic) | 9.55 µM | 7.73 | 3.39 µM | 
35 | CCOP(=O)(OCC)C1(c2ccccc2)N=CC2C(=O)N(C3Cc4ccccc4C3)C(=O)C21 (racemic) | 363 µM | 3.84 |  | Ratio pKi (Homo sapiens [10]): 2; pKi [1]: 6.87; pKi [2]: 3.2; Activity (Homo sapiens [3]): 22%; Ratio Ki (Homo sapiens [4]): 2690
36 | CCOP(=O)(OCC)C1(c2ccccc2)N=CC2C(=O)N(C(C)(C)C)C(=O)C21 (racemic) | 0.17 µM | 7.35 |  | Ratio pKi (Homo sapiens [10]): 3
37 | CCCN1C(=O)C2C=NC(c3ccccc3)(P(=O)(OCC)OCC)C2C1=O (racemic) |  | 4.02 |  | 
38 | CCOP(=O)(OCC)C1(Cc2ccc(F)cc2)N=CC2C(=O)N(c3ccccc3)C(=O)C21 (racemic) | 0.0631 µM | 5.35 |  | 
39 | CCOP(=O)(OCC)C1(c2ccccc2)N=CC2C(=O)N(c3cc([N+](=O)[O-])ccc3C)C(=O)C21 (racemic) |  | < 3 |  | 
40 | CCOP(=O)(OCC)C1(c2ccc(OC)cc2)N=CC2C(=O)N(c3ccccc3)C(=O)C21 (racemic) | 141 µM | 3.39 |  | 
41 | CCOP(=O)(OCC)C1(c2ccccc2)N=CC2C(=O)N(CCc3ccc(F)cc3)C(=O)C21 (racemic) | 2.24 µM | < 3 |  | 
42 | CCOP(=O)(OCC)C1(c2ccccc2)N=CC2C(=O)N(CC)C(=O)C21 (racemic) | 1.41 µM | 8.37 |  | Ratio pKi (Homo sapiens [10]): 331; pKi [1]: 8.95; pKi [2]: 5.86; Activity (Homo sapiens [3]): 62%; Ratio Ki (Homo sapiens [4]): 1260
43 | CCOP(=O)(OCC)C1(c2ccccc2)N=CC2C(=O)N(c3ccc(-c4ccccc4)cc3)C(=O)C21 (racemic) |  | 7.9 | 0.0646 µM | 
44 | CCOP(=O)(OCC)C1(c2ccccc2)N=CC2C(=O)N(c3ccc(Br)cc3)C(=O)C21 (racemic) |  | < 3 |  | 
45 | c1ccc2c(c1)OCC(C1=NCCN1)O2 (stereo not given) [IDAZOXAN] |  |  |  | pKi [1]: 7.74; pKi [11]: 7.17; pKi [12]: 5.68
46 | COc1nc(C)nc(Cl)c1N=C1NCCN1 [MOXONIDINE] |  |  | 0.00355 µM | 
47 | C(=C\c1ccccc1)/C1=NCCN1 [TRACIZOLINE] | 46.8 µM |  |  | Ki [1]: 0.0033 µM; pKi [1]: 8.48; pKi [2]: 6.48; Activity (Homo sapiens [3]): 38%; Ratio Ki (Homo sapiens [4]): 14100

Reference: ChEMBL document CHEMBL4354864, “Bicyclic α-Iminophosphonates as High Affinity Imidazoline I2 Receptor Ligands for Alzheimer's Disease” (J Med Chem, 2020)
